{
  "source": "paper PMC9220178",
  "about": "“Preclinical Characterization of Antioxidant Quinolyl Nitrone QN23 as a New Candidate for the Treatment of Ischemic Stroke” (Antioxidants, 2022)",
  "test": "Toxicokinetics study, plasma concentration by LC-MS/MS after single i.v. bolus",
  "assay_type": "in vivo, rat",
  "conditions": "for Clast / Cmax / AUC(0-t) / C0 / clearance / Vd / k el / half-life: female Sprague Dawley rats, plasma, mean ± SE, n = 6; for Cmax / AUC(0-t) / C0 / clearance / Vd / k el / half-life: rat, iv; for AUC(0-t): read-out: AUC0–8h; for C0: read-out: C0 (initial concentration); for clearance: read-out: Cl (clearance) (converted); for Vd: read-out: Vd (volume of distribution); for k el: read-out: kel (elimination constant) (converted); for half-life: read-out: t1/2 (half-life) (converted)",
  "description": "For the toxicokinetics study of QN23, female Sprague Dawley rats (9–10 weeks, Envigo, Barcelona, Spain) were divided into three groups (n = 6 per group) and treated intravenously with different concentrations of QN23 (2.0, 6.0, and 18 mg/kg), in vehicle solution (ethanol/polyethylene glycol 400/saline, 1:200:60 v/v), as a single bolus of 1 mL injection at 3 mL/min. Samples of plasma were taken at 0.25, 0.5, 1, 2, 4, and 8 h after the first administration (on day 1) and QN23 concentration was determined by liquid chromatography–mass spectrometry in tandem (LC-MS/MS) analysis for pharmacokinetic study. For the determination of the toxicokinetic parameters, a noncompartmental analysis was performed using the Phoenix 64 WinNonlin software (version 8.0, Certara, Sant Louis, MO, USA). This study was carried out by Swiss BioQuant AG (Reinach, Switzerland). For the toxicity study of QN23, rats were divided into four groups (n = 5 per group) and treated intravenously with vehicle (control group) or different concentrations of QN23 (2.0, 6.0, and 18 mg/kg) as a single bolus injection in a 4-day repeated dose as described above. Pathology analyses, comprising hematology, clinical biochemistry, and coagulation, were performed, and heart, kidney, liver, and spleen necropsies were collected for macroscopic analysis. This study was carried out by Vivotecnia Research S.L (Madrid, Spain).",
  "note": "Like-named read-outs stand apart in the source and are kept apart here.",
  "data": [
    {"compound": "COc1ccc2nc(Cl)c(/C=[N+](\\[O-])C(C)(C)C)cc2c1", "note": "[QN23, (Z)-N-tert-Butyl-1-(2-chloro-6-methoxyquinolin-3-yl)methanimine Oxide]", "values": [
      {"measurement": "Clast", "setting": "2.0 mg/kg single i.v. bolus", "value": "30 ± 8", "unit": "ng/mL"},
      {"measurement": "Latest time after injection with quantifiable plasma concentration", "setting": "6 mg/kg single i.v. bolus", "value": "≤ 4", "unit": "h"},
      {"measurement": "Clast", "setting": "6.0 mg/kg single i.v. bolus", "value": "34 ± 5", "unit": "ng/mL"},
      {"measurement": "Last concentration found as share of the initial (and maximal) detected concentration", "setting": "18 mg/kg single i.v. bolus", "value": "approximately 1%"},
      {"measurement": "Clast", "setting": "18 mg/kg single i.v. bolus", "value": "49 ± 5", "unit": "ng/mL"},
      {"measurement": "AUC0–8h versus dose", "setting": "2.0, 6.0 and 18 mg/kg single i.v. bolus", "value": "increased proportional to the dose administered"},
      {"measurement": "Cmax", "setting": "2.0 mg/kg single i.v. bolus", "value": "161 ± 86", "unit": "ng/mL"},
      {"measurement": "AUC(0-t)", "setting": "2.0 mg/kg single i.v. bolus", "value": "160 ± 61", "unit": "ng·h/mL"},
      {"measurement": "C0", "setting": "2.0 mg/kg single i.v. bolus", "value": "540 ± 186", "unit": "ng/mL"},
      {"measurement": "Cmax", "setting": "6.0 mg/kg single i.v. bolus", "value": "1090 ± 371", "unit": "ng/mL"},
      {"measurement": "AUC(0-t)", "setting": "6.0 mg/kg single i.v. bolus", "value": "1010 ± 355", "unit": "ng·h/mL"},
      {"measurement": "C0", "setting": "6.0 mg/kg single i.v. bolus", "value": "2170 ± 661", "unit": "ng/mL"},
      {"measurement": "Cmax", "setting": "18 mg/kg single i.v. bolus", "value": "2570 ± 1200", "unit": "ng/mL"},
      {"measurement": "AUC(0-t)", "setting": "18 mg/kg single i.v. bolus", "value": "2960 ± 1290", "unit": "ng·h/mL"},
      {"measurement": "C0", "setting": "18 mg/kg single i.v. bolus", "value": "4350 ± 1860", "unit": "ng/mL"},
      {"measurement": "clearance", "setting": "2.0 mg/kg single i.v. bolus", "value": 73.3, "unit": "mL/min"},
      {"measurement": "Vd", "setting": "2.0 mg/kg single i.v. bolus", "value": "1.26 ± 0.434", "unit": "L"},
      {"measurement": "k el", "setting": "2.0 mg/kg single i.v. bolus", "value": 0.00118, "unit": "s⁻¹"},
      {"measurement": "half-life", "setting": "2.0 mg/kg single i.v. bolus", "value": "9.6 ± 0.6", "unit": "min"},
      {"measurement": "clearance", "setting": "6.0 mg/kg single i.v. bolus", "value": 56.7, "unit": "mL/min"},
      {"measurement": "Vd", "setting": "6.0 mg/kg single i.v. bolus", "value": "1.66 ± 0.584", "unit": "L"},
      {"measurement": "k el", "setting": "6.0 mg/kg single i.v. bolus", "value": 0.000931, "unit": "s⁻¹"},
      {"measurement": "half-life", "setting": "6.0 mg/kg single i.v. bolus", "value": "14.4 ± 1.8", "unit": "min"},
      {"measurement": "clearance", "setting": "18 mg/kg single i.v. bolus", "value": 78.1, "unit": "mL/min"},
      {"measurement": "Vd", "setting": "18 mg/kg single i.v. bolus", "value": "20.4 ± 12.3", "unit": "L"},
      {"measurement": "k el", "setting": "18 mg/kg single i.v. bolus", "value": 0.000347, "unit": "s⁻¹"},
      {"measurement": "half-life", "setting": "18 mg/kg single i.v. bolus", "value": "67.8 ± 23.4", "unit": "min"}
    ]}
  ]
}
